Numbered stars: 1 amine (or outer) side, 2 acyl side, 3 side chain; on linkers, the order of the positions; unused ones are H or OH. Bridge positions count the residues as written; N and C are the ends. Side chains are listed from the residue outwards. Peptide text beside a SMILES is read from it. * marks the point of attachment. C20 diacid = O=C(O)CCCCCCCCCCCCCCCCCCC(=O)*; γGlu = O=C(O)[C@H](CCC(=O)[*:2])N[*:1]; βAsp = O=C(O)[C@H](CC(=O)[*:2])N[*:1]; AEEA = NCCOCCOCC(=O)O
What was measured:
human amylin receptor = target: T1, human amylin receptor (Homo sapiens, UniProt O60896+P30988); test: Luciferase assay of amylin derivatives in amylin receptor/CRE-luc CHO cell line; type: cell-based; settings: CHO-K1/Ga15/AMY3 CRE-luc cells, 24 hours incubation, F12 medium containing 10% FBS; read-out: EC50
T1 construct: host or cells: CHO-K1/Ga15/AMY3 cells, further stably transfected with a CRE-luciferase plasmid
T1 sequence (P30988 25-474): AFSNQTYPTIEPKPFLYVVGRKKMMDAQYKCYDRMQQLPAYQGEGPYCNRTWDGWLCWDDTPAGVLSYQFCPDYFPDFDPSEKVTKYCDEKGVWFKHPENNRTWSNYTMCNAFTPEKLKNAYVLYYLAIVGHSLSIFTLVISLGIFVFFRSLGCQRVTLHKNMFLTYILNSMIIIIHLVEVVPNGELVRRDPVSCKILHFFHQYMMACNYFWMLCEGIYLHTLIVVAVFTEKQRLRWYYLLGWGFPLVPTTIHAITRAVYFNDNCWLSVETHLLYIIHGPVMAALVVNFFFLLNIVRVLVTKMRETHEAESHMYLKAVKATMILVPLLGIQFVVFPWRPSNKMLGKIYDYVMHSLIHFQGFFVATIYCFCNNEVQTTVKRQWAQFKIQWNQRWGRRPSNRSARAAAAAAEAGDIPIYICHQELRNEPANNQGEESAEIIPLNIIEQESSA
T1 sequence (O60896 24-148 partner): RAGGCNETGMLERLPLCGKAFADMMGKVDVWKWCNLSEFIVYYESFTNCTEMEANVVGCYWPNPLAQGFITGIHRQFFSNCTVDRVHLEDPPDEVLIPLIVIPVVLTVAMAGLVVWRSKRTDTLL
Experimental: The experiment was intended to detect the activity or efficacy of the amylin derivatives on a human amylin receptor in vitro by luciferase assay.
50 μL of growth medium (F12 medium containing 10% FBS) was added into each well of a white 96-well plate, and the stably transfected amylin/CRE-lue CHO cells were inoculated into the white 96-well plate at a density of about 20,000 cells/well for activity determination.

[1] = Freeze-thaw stability of derivatives (freeze-thaw yield by liquid chromatography); type: physicochemical; settings: for Dissolution property: appearance after dissolution at 0.2 mg/ml in 20 mM phosphate buffer solution (PB) (pH 7.0); for Freeze storage property: appearance after overnight storage at −20° C. and thawing to room temperature, 0.2 mg/ml in 20 mM PB (pH 7.0)
Experimental: The freeze-dried powder of the polypeptide analog derivative prepared in Example 1 was mixed with a buffer solution according to a mass-volume ratio of 0.2 mg/ml, the polypeptide was dissolved with 20 mM phosphate buffer solution (PB) (pH 7.0), the sample was stored at −20° C. for overnight storage, and then the sample was taken out to be restored to room temperature for thawing. During the experiment, property changes of the polypeptide after dissolution and freezing and thawing were observed and recorded respectively, and concentrations of the polypeptide before and after the freezing and thawing were detected by the following liquid chromatography method: Materials and equipment: high-performance liquid chromatographic instrument (Agilent 1200), ultrapure water (18.2 MΩ self-manufactured ultrapure water), acetonitrile (HPLC grade), and trifluoroacetic acid (HPLC grade); and reversed-phase chromatographic column: […] A sample to be tested was centrifuged at 10,000 rpm and 4° C. for 3 minutes, and a supernatant was taken and added into a liquid-phase sample injection bottle. […] A freeze-thaw yield was calculated by the following formula: freeze-thaw yield=concentration of polypeptide after the freezing and thawing/concentration of polypeptide before the freezing and thawing.

Row | EC50 (human amylin receptor) [nM] | Dissolution property [1] | Freeze storage property [1] | Molecule
1 | 0.042 | Clear | Clear | CC[C@H](C)[C@H](NC(=O)[C@@H]1CCCN1C(=O)CNC(=O)[C@H](CC(C)C)NC(=O)[C@H](CC(N)=O)NC(=O)[C@H](CCCCNC(=O)COCCOCCNC(=O)COCCOCCNC(=O)CC[C@H](NC(=O)CCCCCCCCCCCCCCCCCCC(=O)O)C(=O)O)NC(=O)[C@H](CO)NC(=O)[C@H](CO)NC(=O)[C@H](Cc1c[nH]cn1)NC(=O)[C@H](CCCNC(=N)N)NC(=O)[C@H](CC(C)C)NC(=O)[C@H](Cc1ccccc1)NC(=O)[C@H](CCC(=O)O)NC(=O)[C@H](C)NC(=O)[C@H](CC(C)C)NC(=O)[C@H](CCCNC(=N)N)NC(=O)[C@H](CCC(N)=O)NC(=O)[C@@H](NC(=O)[C@H](C)NC(=O)[C@@H]1CSSC[C@H](NC(=O)[C@@H](N)CCCNC(=N)N)C(=O)N[C@@H](CC(N)=O)C(=O)N[C@@H]([C@@H](C)O)C(=O)N[C@@H](C)C(=O)N[C@@H]([C@@H](C)O)C(=O)N1)[C@@H](C)O)C(=O)N[C@@H](CC(C)C)C(=O)N1CCC[C@H]1C(=O)N1CCC[C@H]1C(=O)N[C@H](C(=O)N[C@@H](CC(N)=O)C(=O)N[C@H](C(=O)NCC(=O)N[C@@H](CO)C(=O)N[C@@H](CC(N)=O)C(=O)N[C@H](C(=O)N1CCC[C@H]1C(N)=O)[C@@H](C)O)C(C)C)[C@@H](C)O [PD001] (H-RCNTATCATQRLAEFLRHSSK([AEEA-AEEA-γGlu-C20 diacid])NLGPILPPTNVGSNTP-NH2; disulfide 2-7 (inferred); N-terminus assumed)
2 | 0.119 | Clear | Clear | CC[C@H](C)[C@H](NC(=O)[C@@H]1CCCN1C(=O)CNC(=O)[C@H](CC(C)C)NC(=O)[C@H](CCCCNC(=O)COCCOCCNC(=O)COCCOCCNC(=O)CC[C@H](NC(=O)CCCCCCCCCCCCCCCCCCC(=O)O)C(=O)O)NC(=O)[C@H](CC(N)=O)NC(=O)[C@H](CO)NC(=O)[C@H](CO)NC(=O)[C@H](Cc1c[nH]cn1)NC(=O)[C@H](CCCNC(=N)N)NC(=O)[C@H](CC(C)C)NC(=O)[C@H](Cc1ccccc1)NC(=O)[C@H](CCC(=O)O)NC(=O)[C@H](C)NC(=O)[C@H](CC(C)C)NC(=O)[C@H](CCCNC(=N)N)NC(=O)[C@H](CCC(N)=O)NC(=O)[C@@H](NC(=O)[C@H](C)NC(=O)[C@@H]1CSSC[C@H](NC(=O)[C@@H](N)CCCNC(=N)N)C(=O)N[C@@H](CC(N)=O)C(=O)N[C@@H]([C@@H](C)O)C(=O)N[C@@H](C)C(=O)N[C@@H]([C@@H](C)O)C(=O)N1)[C@@H](C)O)C(=O)N[C@@H](CC(C)C)C(=O)N1CCC[C@H]1C(=O)N1CCC[C@H]1C(=O)N[C@H](C(=O)N[C@@H](CC(N)=O)C(=O)N[C@H](C(=O)NCC(=O)N[C@@H](CO)C(=O)N[C@@H](CC(N)=O)C(=O)N[C@H](C(=O)N1CCC[C@H]1C(N)=O)[C@@H](C)O)C(C)C)[C@@H](C)O [PD002] (H-RCNTATCATQRLAEFLRHSSNK([AEEA-AEEA-γGlu-C20 diacid])LGPILPPTNVGSNTP-NH2; disulfide 2-7 (inferred); N-terminus assumed)
3 | 0.14 | Clear | Clear | CC[C@H](C)[C@H](NC(=O)[C@@H]1CCCN1C(=O)CNC(=O)[C@H](CCCCNC(=O)COCCOCCNC(=O)COCCOCCNC(=O)CC[C@H](NC(=O)CCCCCCCCCCCCCCCCCCC(=O)O)C(=O)O)NC(=O)[C@H](CC(N)=O)NC(=O)[C@H](CC(N)=O)NC(=O)[C@H](CO)NC(=O)[C@H](CO)NC(=O)[C@H](Cc1c[nH]cn1)NC(=O)[C@H](CCCNC(=N)N)NC(=O)[C@H](CC(C)C)NC(=O)[C@H](Cc1ccccc1)NC(=O)[C@H](CCC(=O)O)NC(=O)[C@H](C)NC(=O)[C@H](CC(C)C)NC(=O)[C@H](CCCNC(=N)N)NC(=O)[C@H](CCC(N)=O)NC(=O)[C@@H](NC(=O)[C@H](C)NC(=O)[C@@H]1CSSC[C@H](NC(=O)[C@@H](N)CCCNC(=N)N)C(=O)N[C@@H](CC(N)=O)C(=O)N[C@@H]([C@@H](C)O)C(=O)N[C@@H](C)C(=O)N[C@@H]([C@@H](C)O)C(=O)N1)[C@@H](C)O)C(=O)N[C@@H](CC(C)C)C(=O)N1CCC[C@H]1C(=O)N1CCC[C@H]1C(=O)N[C@H](C(=O)N[C@@H](CC(N)=O)C(=O)N[C@H](C(=O)NCC(=O)N[C@@H](CO)C(=O)N[C@@H](CC(N)=O)C(=O)N[C@H](C(=O)N1CCC[C@H]1C(N)=O)[C@@H](C)O)C(C)C)[C@@H](C)O [PD003] (H-RCNTATCATQRLAEFLRHSSNNK([AEEA-AEEA-γGlu-C20 diacid])GPILPPTNVGSNTP-NH2; disulfide 2-7 (inferred); N-terminus assumed)
4 | 0.025 | – | – | CC[C@H](C)[C@H](NC(=O)[C@@H]1CCCN1C(=O)[C@H](CCCCN)NC(=O)[C@H](CC(C)C)NC(=O)[C@H](CC(N)=O)NC(=O)[C@H](CC(N)=O)NC(=O)[C@H](CO)NC(=O)[C@H](CO)NC(=O)[C@H](Cc1c[nH]cn1)NC(=O)[C@H](CCCNC(=N)N)NC(=O)[C@H](CC(C)C)NC(=O)[C@H](Cc1ccccc1)NC(=O)[C@H](CC(=O)O)NC(=O)[C@H](C)NC(=O)[C@H](CC(C)C)NC(=O)[C@H](CCCNC(=N)N)NC(=O)[C@H](CCC(N)=O)NC(=O)[C@@H](NC(=O)[C@H](C)NC(=O)[C@@H]1CSSC[C@H](NC(=O)[C@H](CCCCN)NC(=O)COCCOCCNC(=O)COCCOCCNC(=O)C[C@H](NC(=O)CCCCCCCCCCCCCCCCCCC(=O)O)C(=O)O)C(=O)N[C@@H](CC(N)=O)C(=O)N[C@@H]([C@@H](C)O)C(=O)N[C@@H](C)C(=O)N[C@@H]([C@@H](C)O)C(=O)N1)[C@@H](C)O)C(=O)N[C@@H](CC(C)C)C(=O)N1CCC[C@H]1C(=O)N1CCC[C@H]1C(=O)N[C@H](C(=O)N[C@@H](CC(N)=O)C(=O)N[C@H](C(=O)NCC(=O)N[C@@H](CO)C(=O)N[C@@H](CC(N)=O)C(=O)N[C@H](C(=O)N1CCC[C@H]1C(N)=O)[C@@H](C)O)C(C)C)[C@@H](C)O [PD195] ({C20 diacid-βAsp-AEEA-AEEA}-KCNTATCATQRLADFLRHSSNNLKPILPPTNVGSNTP-NH2; disulfide 2-7 (inferred))
5 | 0.025 | – | – | CC[C@H](C)[C@H](NC(=O)[C@@H]1CCCN1C(=O)[C@H](CCCNC(=N)N)NC(=O)[C@H](CC(C)C)NC(=O)[C@H](CC(N)=O)NC(=O)[C@H](CC(N)=O)NC(=O)[C@H](CO)NC(=O)[C@H](CO)NC(=O)[C@H](Cc1c[nH]cn1)NC(=O)[C@H](CCCNC(=N)N)NC(=O)[C@H](CC(C)C)NC(=O)[C@H](Cc1ccccc1)NC(=O)[C@H](CC(=O)O)NC(=O)[C@H](C)NC(=O)[C@H](CC(C)C)NC(=O)[C@H](CCCNC(=N)N)NC(=O)[C@H](CCC(N)=O)NC(=O)[C@@H](NC(=O)[C@H](C)NC(=O)[C@@H]1CSSC[C@H](NC(=O)[C@H](CCCNC(=N)N)NC(=O)CC[C@H](NC(=O)CCCCCCCCCCCCCCCCCCC(=O)O)C(=O)O)C(=O)N[C@@H](CC(N)=O)C(=O)N[C@@H]([C@@H](C)O)C(=O)N[C@@H](C)C(=O)N[C@@H]([C@@H](C)O)C(=O)N1)[C@@H](C)O)C(=O)N[C@@H](CC(C)C)C(=O)N1CCC[C@H]1C(=O)N1CCC[C@H]1C(=O)N[C@H](C(=O)N[C@@H](CC(N)=O)C(=O)N[C@H](C(=O)NCC(=O)N[C@@H](CO)C(=O)N[C@@H](CC(N)=O)C(=O)N[C@H](C(=O)N1CCC[C@H]1C(N)=O)[C@@H](C)O)C(C)C)[C@@H](C)O [PD197] ({C20 diacid-γGlu}-RCNTATCATQRLADFLRHSSNNLRPILPPTNVGSNTP-NH2; disulfide 2-7 (inferred))
6 | 0.029 | – | – | {C20 diacid-γGlu}-KGGGGRCNTATCATQRLADFLRHSSNNLRPILPPTNVGSNTP-NH2 (disulfide 7-12 (inferred)) [PD198]
